Test results reported in patent US20090099240A1, “METHODS FOR TREATING ENERGY METABOLISM DISORDERS BY INHIBITING FATTY ACID AMIDE HYDROLASE ACTIVITY” (N.V. Organon, priority 2006, published 2009).

Columns and labels:
[1] = test system: APOE*3-Leiden transgenic (E3L) mice; assay: Organ and tissue weights in E3L mice on high cholesterol diet
Text: (§1) We assessed the effect of inhibiting FAAH activity on body weight, body fat, triglyceride levels, cholesterol levels in APOE*3-Leiden transgenic (E3L) mice, an animal model of hyperlipidemia. […] See van Vlijmen et al. (1994), J. Clin Invest., 93:1403-1410. Indeed, upon high fat and cholesterol feeding, these mice develop various stages of atherosclerotic lesions depending on plasma total cholesterol levels and resembling those found in humans. See Groot et al. (1996), Arterioscler. Thromb. Vasc. Biol., 16:926-933; Versch ren et al. (2005), Arterioscler. Thromb. Vasc Biol., 25:161-167; and Lutgens et al. (1999), Circulation; 99(2):276-283). Thus, the E3L mouse is a suitable model for the investigation of the efficacy of anti-atherosclerotic drugs.
(§2) E3L mice were fed a high cholesterol (1% w/w) diet (HC diet) for a period of four weeks. Animals were then matched based on their plasma cholesterol levels, and were divided into five groups, each of which was maintained on an HC diet.
(§3) Blood samples were collected at days 0, 14, and 28 of the treatment period. At the end of the treatment period, animals were sacrificed, and various tissues and organs were analyzed. Unless otherwise indicated, values are mean±standard deviation (SD).

[2] = test system: APOE*3-Leiden transgenic (E3L) mice; assay: Total plasma cholesterol in E3L mice; assay type: in vivo, mouse
Text: as §1, §2, §3

[3] = test system: APOE*3-Leiden transgenic (E3L) mice; assay: Total plasma triglyceride levels in E3L mice; assay type: in vivo, mouse
Text: as §1, §2, §3

[4] = test system: APOE*3-Leiden transgenic (E3L) mice; assay: Plasma alanine aminotransferase (ALAT) activity in E3L mice; assay type: in vivo, mouse; details: day 28
Experimental: as §2
Levels of plasma alanine aminotransferase (ALAT) were determined on day 28 (table 7). Plasma ALAT is a measure of hepatic stress and increases in plasma ALAT levels are often associated with liver damage. […] Thus, a reduction in plasma ALAT levels is associated with improved liver function.

[5] = test system: APOE*3-Leiden transgenic (E3L) mice; assay: Lipid content of liver (TLC) in E3L mice; assay type: in vivo, mouse; details: end of four-week treatment
Text: as §2
A reduction of Red Oil O staining in liver generally indicates reduced liver lipid content. We therefore quantified levels of lipids in livers from each animal, as described in Havekes et al. (1987), Biochem. J., 247:739-746; Delsing et al. (2005), J. Cardiovasc. Pharmacol., 45:53-60; and Post et al. (2004), ATVB, 24:768-774. Liver tissue homogenates were prepared. Lipids were extracted, dried under nitrogen, dissolved in chloroform, and spotted onto a channeled 20×20 cm silica gel thin layer chromatography (TLC) plate. Lipids were then separated, TLC plates were warmed up to visualize bands, and bands were quantified using an internal standard as reference.

[6] = E3L mice, HC diet, end of four-week treatment, mean ± SD

CC(C)OC(=O)C(C)(C)Oc1ccc(C(=O)c2ccc(Cl)cc2)cc1 [Fenofibrate, fenofibrate]
Organ and Tissue Weights: Fat (gonadal fat) [1, 6]: 0.48 ± 0.14 g
Organ and Tissue Weights: Heart [1, 6]: 0.14 ± 0.02 g
Organ and Tissue Weights: Liver [1, 6]: ^#1.77 ± 0.28^ g
Organ and Tissue Weights: Lung [1, 6]: 0.21 ± 0.05 g
liver weight, in words ([1]; relative to its control group): significant increase
Total Plasma Cholesterol ([2]; day 0): 13.6 ± 4.2 mM
Total Plasma Cholesterol ([2]; day 14): *6.5 ± 1.0 mM
Total Plasma Cholesterol ([2]; day 28): *6.2 ± 1.3 mM
Total Plasma Triglyceride Levels ([3]; day 0): 1.6 ± 0.4 mM
Total Plasma Triglyceride Levels ([3]; day 14): ^#*0.7 ± 0.2 mM
Total Plasma Triglyceride Levels ([3]; day 28): ^#*0.7 ± 0.2 mM
Plasma Alanine Amino Transferase Activity [4]: 112.5 ± 10.4 U/L
Lipid Content of Liver: Cholesterol Esters [5]: 44 ± 6
Lipid Content of Liver: Free Cholesterol [5]: 21 ± 2
